Measurements published in patent publication EP0254593B1, “Preparation and uses of interferon-gamma” (KABUSHIKI KAISHA HAYASHIBARA SEIBUTSU KAGAKU KENKYUJO, priority 1986, dated 1988).
Where a name gives a salt, the structure may show the parent alone.

Legend:
PC-9 = test: Potentialization of cytostatic activity of chemotherapeutics by HuIFN-gamma in vitro; format: cell-based, human; conditions: 2880 min
Method: (§1) An aliquot of RPMI 1640 medium supplemented with 15 v/v % fetal calf serum was added with an HuIFN-gamma prepared by the method in Example B-1(3) to a final concentration of 5, 50 or 500 units/ml, and the mixture was inoculated with a malignant human tumor cell to 5×10^5 cell/ml. The resultant was incubated in 5% CO2 incubator at 37°C for three days. As control, the same amount of an HuIFN-gamma preinactivated by 30-minute incubation at 100°C was added to a fresh preparation of the same culture medium, and the mixture was treated similarly as above. After culture, the viable cell was stained with neutral red in accordance with the method as described in Applied Microbiology, Vol.22, No.4, pp.671-677 (1971). Thereafter, the neutral red was eluted with acidified ethanol, and the number of viable cell was determined with the absorbance of the eluate at 540 nm.
(§2) Cytostatic rate (%) was determined with the following equation: Cytostatic rate (%) = ( 1 -(A)/(B)) × 100 [formula] wherein A designates the number of viable cell in the test system, and B, that in the control.
(§3) One ml aliquots of a nutrient culture medium prepared in accordance with the method in Experiment 2-2(1) was inoculated with 10^6 cells of a human malignant tumor cell, and the mixture was cultured for one day. The resultant culture was added with 50 units of an HuIFN-gamma prepared by the method in Example B-1(3) and/or 0.1 ml of saline containing a chemotherapeutic, and cultured at 37°C for two days. As control, a saline free of HuIFN-gamma and chemotherapeutic was used. After the culture, the cytostatic rate (%) was determined in accordance with the method in Experiment 2-2(1). The concentration of the chemotherapeutics were as follows: nimustine hydrochloride (ACNU), 1.0×10^-6 g/ml; fluorouracil (5-FU), 1.5×10^-8 g/ml; doxorubicin (ADM), 1.0×10^-10 g/ml; mitomycin C (MMC), 2.5×10^-9 g/ml; and vincristine sulfate (VCR), 1.5×10^-10 g/ml.

HLE = test: as above; format: cell-based, human; conditions: 2880 min
Method: as §1, §2, §3

HEp-2 cell = test: as above; format: cell-based, human; conditions: 2880 min
Method: as §1, §2, §3

HeLa = test: as above; format: cell-based, human; conditions: 2880 min
Method: as §1, §2, §3

[1] = system: human breast cancer tissue; test: Cytostatic activity on malignant tumors in vivo (tumor weight); parameters: species or system BALB/c nude mice; conditions: injected once every day for 20 days; dose/kg/day: HuIFN-gamma 50 units, HuIFN-alpha 500 units, TNF 100 units, MMC 1 mg; control 10.8 g
Method: BALB/c nude mice were implanted at their dorsal area with a segment of human breast cancer tissue. From the time when the tumors grew to about 200 mm^3, the nude mice were injected once every day with one or more HuIFN-gamma prepared by the method in Example B-1(3), a lymphokine derived from human lymphoblastoid cell, and/or a chemotherapeutic in saline solution over a period of 20 days.
Thereafter, the nude mice were sacrificed, and the tumors were weighed.
As control, saline was injected similarly as above.

[2] = chemotherapeutic with addition (+) of 50 units HuIFN-gamma, two days, same chemotherapeutic concentrations
[3] = single agent, two days: HuIFN-gamma 50 units, ACNU 1.0×10^-6, 5-FU 1.5×10^-8, ADM 1.0×10^-10, MMC 2.5×10^-9, VCR 1.5×10^-10 g/ml

Cc1ncc(CNC(=O)N(CCCl)N=O)c(N)n1 [ACNU, nimustine hydrochloride]
Cytostatic rate (%) (PC-9; [2]): 65% | Cytostatic rate (%) (PC-9; [3]): 2% | Cytostatic rate (%) (HLE; [2]): 63% | Cytostatic rate (%) (HLE; [3]): 5% | Cytostatic rate (%) (HEp-2 cell; [2]): 54% | Cytostatic rate (%) (HEp-2 cell; [3]): 4% | Cytostatic rate (%) (HeLa; [2]): 72% | Cytostatic rate (%) (HeLa; [3]): 5%

COc1cccc2c1C(=O)c1c(O)c3c(c(O)c1C2=O)C[C@@](O)(C(=O)CO)C[C@@H]3O[C@H]1C[C@H](N)[C@H](O)[C@H](C)O1 [ADM, doxorubicin]
Cytostatic rate (%) (PC-9; [2]): 72% | Cytostatic rate (%) (PC-9; [3]): 6% | Cytostatic rate (%) (HLE; [2]): 62% | Cytostatic rate (%) (HLE; [3]): 7% | Cytostatic rate (%) (HEp-2 cell; [2]): 59% | Cytostatic rate (%) (HEp-2 cell; [3]): 13% | Cytostatic rate (%) (HeLa; [2]): 64% | Cytostatic rate (%) (HeLa; [3]): 17%

O=c1[nH]cc(F)c(=O)[nH]1 [Example 5-FU, fluorouracil]
Cytostatic rate (%) (PC-9; [2]): 68% | Cytostatic rate (%) (PC-9; [3]): 10% | Cytostatic rate (%) (HLE; [2]): 71% | Cytostatic rate (%) (HLE; [3]): 8% | Cytostatic rate (%) (HEp-2 cell; [2]): 67% | Cytostatic rate (%) (HEp-2 cell; [3]): 8% | Cytostatic rate (%) (HeLa; [2]): 70% | Cytostatic rate (%) (HeLa; [3]): 12%

CO[C@@]12[C@H](COC(N)=O)C3=C(C(=O)C(C)=C(N)C3=O)N1C[C@@H]1N[C@@H]12 [MMC, mitomycin C]
Cytostatic rate (%) (PC-9; [2]): 64% | Cytostatic rate (%) (PC-9; [3]): 5% | Cytostatic rate (%) (HLE; [2]): 65% | Cytostatic rate (%) (HLE; [3]): 12% | Cytostatic rate (%) (HEp-2 cell; [2]): 61% | Cytostatic rate (%) (HEp-2 cell; [3]): 10% | Cytostatic rate (%) (HeLa; [2]): 62% | Cytostatic rate (%) (HeLa; [3]): 7% | Tumor [1]: 5.1 ± 0.4 g

CC[C@]1(O)C[C@H]2CN(CCc3c([nH]c4ccccc34)[C@@](C(=O)OC)(c3cc4c(cc3OC)N(C=O)[C@H]3[C@@](O)(C(=O)OC)[C@H](OC(C)=O)[C@]5(CC)C=CCN6CC[C@]43[C@@H]65)C2)C1 [VCR, vincristine sulfate]
Cytostatic rate (%) (PC-9; [2]): 66% | Cytostatic rate (%) (PC-9; [3]): 8% | Cytostatic rate (%) (HLE; [2]): 58% | Cytostatic rate (%) (HLE; [3]): 10% | Cytostatic rate (%) (HEp-2 cell; [2]): 58% | Cytostatic rate (%) (HEp-2 cell; [3]): 5% | Cytostatic rate (%) (HeLa; [2]): 65% | Cytostatic rate (%) (HeLa; [3]): 10%
